Where two headings read alike, the source gives them in different places.
Legend:
hot flashes [1] = details: cited from earlier work; for minimizing occurrence and severity of hot flashes versus placebo: randomized clinical trials
hot flashes [2] = test: Case report: risperidone for hot flashes in a case with hysterectomy; type: in vivo, human; details: for response of hot flashes to earlier treatments: person, PREMARIN 0.625 mg/day, PROZAC 20 mg/day, TOFRANIL 20 mg/day, each for 1-2 months
Method: A person was admitted to the hospital in December of 2004 due to hot flashes, hypertension, and restlessness. They had been told that they were suffering from essential hypertension for 16 years and had taken anti-hypertension medications for several years. However, their blood pressure still fluctuated and frequently dropped below critical level after taking sublingual adalate (10 mg) for sudden onsets of high blood pressure. They had no history of psychiatric or systemic diseases, except for a total abdominal hysterectomy. On admission, it was observed that their hot flash attacks occurred many times a day, lasting a few minutes and was usually followed by high blood pressure up to 180-200/84-96 mmHg, general shivers, and anxiety for 20-60 minutes. Such clinical symptoms started and grew progressively worse.
[…] biochemical and hematological results, such as sodium and potassium levels, 140 mmol/L and 4.0 mmol/L, respectively, were all within normal ranges. […] The plasma adrenaline, nor-adrenaline, VMA, epinephrine, and dopamine levels as well as thyroid hormones, including T3, T4, and TSH, were also normal.
Because estrogen withdrawal may alter the thermoregulatory set-point located in the hypothalamus, by increasing the sensitivity of hypothalamic 5-HT2A receptor, a regimen of a 5-HT2A antagonist may provide an effective therapy for symptoms of hormonal variations, such as hot flashes. Thus, the patient was treated with risperidone (2 mg/day). […] Thereafter, the dosage of anti-hypertension drugs was reduced. With the patient's permission, risperidone therapy was discontinued and hot flashes reoccurred within 2-3 days after discontinuing the treatment. The symptoms were again alleviated 3-4 days after resuming risperidone treatment.

[3] = test system: cholinergic muscarinic receptors; details: cited from earlier work
α-adrenergic receptors = details: cited from earlier work
histamine receptors = details: cited from earlier work
hot flashes [4] = details: cited from earlier work
hot flashes [5] = details: pilot trials; cited from earlier work
hot flashes [6] = details: men and women; placebo 20 percent; cited from earlier work
hot flashes [7] = details: other pilot evaluations; compared with venlafaxine and paroxetine; cited from earlier work
D2 dopamine receptor = D2 dopamine receptor (Homo sapiens, UniProt P14416); details: serial PET scans; cited from earlier work
Sequence of D2 dopamine receptor (P14416 whole entry): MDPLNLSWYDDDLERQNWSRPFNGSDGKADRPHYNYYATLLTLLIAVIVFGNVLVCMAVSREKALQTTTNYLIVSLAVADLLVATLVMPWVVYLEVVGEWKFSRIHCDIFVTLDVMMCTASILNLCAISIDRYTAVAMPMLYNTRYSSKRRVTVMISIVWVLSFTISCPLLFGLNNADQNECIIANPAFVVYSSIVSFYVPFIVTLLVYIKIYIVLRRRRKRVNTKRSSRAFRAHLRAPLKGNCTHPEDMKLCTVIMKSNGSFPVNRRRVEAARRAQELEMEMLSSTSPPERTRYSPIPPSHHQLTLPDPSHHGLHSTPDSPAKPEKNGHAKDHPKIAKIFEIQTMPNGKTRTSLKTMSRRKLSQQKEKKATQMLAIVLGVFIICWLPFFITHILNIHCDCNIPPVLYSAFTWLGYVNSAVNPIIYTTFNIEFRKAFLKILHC

hot flashes [8] = test: Case report: risperidone for hot flashes of natural menopause; type: in vivo, human
Excerpt: Patient 2 was a person who began developing intolerable hot flashes and night sweats after natural menopause that occurred seven years ago. […] One month after discontinuing hormone replacement therapy, they developed hot flashes up to ten times per day, night sweats up to three times per night that disrupted their sleep, and headaches. The patient then sought neurological consultation. The patient also suffered from headaches twice per day and fluctuating blood pressure. […] In addition, they slept well and their blood pressure stabilized. To assess the relationship between risperidone therapy and the resolution of hot flashes, risperidone was tapered off over 2 days. The patient experienced hot flashes and night sweats again two days after risperidone treatment was completely discontinued.

hot flashes [9] = test: Case report: risperidone for hot flashes in a perimenopausal case; type: in vivo, human
Method: Patient 3 was a person who was diagnosed with perimenopause, based on increased levels of follicle-stimulating hormone, increased variability in menstrual cycle length, development of hot flashes, and insomnia. The patient had had these symptoms for two years. […] Risperidone treatment (1 mg per night) was started. At that time, the patient was experiencing seven hot flashes per day. […] With their permission, risperidone was tapered off over two days, and the hot flashes developed again three days later.

hot flashes [10] = test: Case report: risperidone for residual hot flashes in a case with hormone replacement therapy; type: in vivo, human
Excerpt: Patient 4 was a person who had developed hot flashes, with a frequency of once per hour, palpitation, insomnia, headache, restlessness, and unstable blood pressure for over seven years. Initially, the patient visited a psychiatrist for their sleep disorder and a cardiovascular specialist for their high blood pressure. A year later, because of intolerable hot flashes and other menopausal symptoms, they received hormone replacement therapy (DIVINA®). Although their hot flashes were reduced to twice per day, headaches persisted and their blood pressure fluctuated from 180 to 210/110 to 90 mm Hg despite treatment with anti-hypertension drugs. The patient was started on risperidone treatment, 1 mg at bedtime for the first two days, followed by 2 mg per night, for residual hot flashes.

serotonin receptors = details: cited from earlier work
dopamine receptors = details: cited from earlier work
D1 dopamine receptor = D1 dopamine receptor (Homo sapiens, UniProt P21728); details: cited from earlier work
Sequence of D1 dopamine receptor (P21728 whole entry): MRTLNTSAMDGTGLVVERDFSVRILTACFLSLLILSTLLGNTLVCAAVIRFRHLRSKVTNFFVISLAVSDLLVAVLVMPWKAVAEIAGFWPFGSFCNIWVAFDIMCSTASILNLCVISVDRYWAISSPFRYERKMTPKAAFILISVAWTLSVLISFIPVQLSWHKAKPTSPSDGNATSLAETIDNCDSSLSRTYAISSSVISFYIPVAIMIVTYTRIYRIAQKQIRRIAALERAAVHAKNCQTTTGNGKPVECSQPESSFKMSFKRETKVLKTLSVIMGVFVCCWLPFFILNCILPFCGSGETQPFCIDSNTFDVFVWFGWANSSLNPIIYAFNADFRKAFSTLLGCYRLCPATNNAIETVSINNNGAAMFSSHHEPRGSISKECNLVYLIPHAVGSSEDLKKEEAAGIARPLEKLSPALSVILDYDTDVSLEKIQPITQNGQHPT

D2 receptors = D2 receptors (Homo sapiens, UniProt P14416); details: cited from earlier work
Sequence of D2 receptors (P14416 whole entry): as the sequence (P14416 whole entry) above

In the case of `CNCCC(Oc1ccc(C(F)(F)F)cc1)c1ccccc1` (stereo not drawn) [Fluoxetine], the “reduction in hot-flash scores” value (hot flashes [1]; 20 mg/day, placebo 36%, P=0.02) is given as 50% and the “response of hot flashes to earlier treatments” value (hot flashes [2]) is given as “limited success”.
With `CN(C)CCCN1c2ccccc2CCc2ccccc21.Cl` [TOFRANIL®] the “response of hot flashes to earlier treatments” value (hot flashes [2]) was “limited success”.
For `O=C1CCc2ccc(OCCCCN3CCN(c4cccc(Cl)c4Cl)CC3)cc2N1` [aripiprazole], the affinity [3] is given as “no appreciable affinity”, the affinity (α-adrenergic receptors) is given as “moderate affinities” and the affinity (histamine receptors) is given as “moderate affinities”.
For `Clc1cccc(Cl)c1N=C1NCCN1` [clonidine], the adverse effects (hot flashes [4]; common adverse effects in clinical trials) is listed as “dry mouth, dizziness, and blurred vision”, the “difference from placebo effect, self-reported hot flash frequency” value (hot flashes [4]; men, double blind cross over study) is listed as “not statistically significant” and the “efficacy against hot flashes versus placebo” value (hot flashes [4]; randomized clinical trials) is listed as “moderately more efficacious than placebo”. The “decrease of hot flash frequency greater than that seen with placebo” value (hot flashes [4]; women) was 10-15%.
For `NCC1(CC(=O)O)CCCCC1` [gabapentin], the “reduction of the incidence of hot flashes” value (hot flashes [5]) is given as 42%-70%.
For `CC(=O)O[C@]1(C(C)=O)CC[C@H]2[C@@H]3C=C(C)C4=CC(=O)CC[C@]4(C)[C@H]3CC[C@@]21C` [megestrol acetate], the “reduction in self-reported hot flash frequency” value (hot flashes [6]) is given as about 80%.
In the case of `CN1CCN2c3ncccc3Cc3ccccc3C2C1` (stereo not drawn) [mirtazapine], the “alleviation of hot flashes” value (hot flashes [7]) is given as “alleviate hot flashes to a similar degree”.
For `Fc1ccc([C@@H]2CCNC[C@H]2COc2ccc3c(c2)OCO3)cc1` [paroxetine], the “minimizing occurrence and severity of hot flashes versus placebo” value (hot flashes [1]) is listed as “more effective than placebo”.
In the case of `OCCOCCN1CCN(C2=Nc3ccccc3Sc3ccccc32)CC1` [quetiapine], the “dissociation from the D2 receptor” value (D2 dopamine receptor) is listed as “rapidly disassociates”.
For `Cc1nc2n(c(=O)c1CCN1CCC(c3noc4cc(F)ccc34)CC1)CCCC2` [risperidone], the “associated symptoms (palpitation, anxiety)” value (hot flashes [2]; risperidone 2 mg/day) was “improved significantly”, the hot flash frequency (hot flashes [2]; risperidone 2 mg/day, after three days of treatment, before: many times a day) was “reduced markedly to a frequency of once per 1-2 weeks” and the “time to reoccurrence of hot flashes after discontinuing treatment” value (hot flashes [2]; risperidone discontinued) was 2 to 3 days. The “time to alleviation of symptoms after resuming treatment” value (hot flashes [2]; risperidone resumed) was 3 to 4 days, the “hot flashes after resuming treatment” value (hot flashes [8]; risperidone 2 mg daily resumed) was “has not suffered another hot flash since” and the blood pressure (hot flashes [8]; risperidone 2 mg per day) was “stabilized”. The sleep (hot flashes [8]; risperidone 2 mg per day) was “slept well”, the “occurrence of hot flashes” value (hot flashes [8]; risperidone 2 mg per day, by day 7) was “completely eliminated” and the “occurrence of hot flashes” value (hot flashes [8]; risperidone 2 mg per day, two days after start, before: up to ten times per day) was “reduced markedly”. For the same molecule, the “time to return of hot flashes and night sweats after treatment completely discontinued” value (hot flashes [8]; risperidone tapered off over 2 days) was “two”, the “hot flashes at decreased dosage” value (hot flashes [9]; risperidone 0.25 mg or less per day, three months later) was “still markedly eliminated” and the “hot flashes after resuming treatment” value (hot flashes [9]; risperidone 1 mg daily resumed) was “no longer experienced hot flashes”. For the same molecule, the “quality of sleep and life” value (hot flashes [9]; risperidone 1 mg daily resumed) was “improved”, the “frequency and intensity of hot flashes” value (hot flashes [9]; risperidone 1 mg per night, three days after start, before: seven hot flashes per day) was “markedly reduced” and the “time to return of hot flashes after tapering off” value (hot flashes [9]; risperidone tapered off over two days) was “three”. For the same molecule, the residual hot flashes (hot flashes [10]; risperidone 1 mg at bedtime for two days, then 2 mg per night, three days after start) was “completely eliminated” and the blood pressure (hot flashes [10]; risperidone 1 mg then 2 mg per night) was “stabilized within the normal range”.
In the case of `COc1ccc(C(CN(C)C)C2(O)CCCCC2)cc1` (stereo not drawn) [venlafaxine], the “reduction in hot-flash scores” value (hot flashes [1]; low-dose (37.5 mg/day), placebo 27%) is given as 37%, the “reduction in hot-flash scores” value (hot flashes [1]; moderate and high doses (75 and 150 mg/day)) is given as 61% and the “minimizing occurrence and severity of hot flashes versus placebo” value (hot flashes [1]) is given as “more effective than placebo”.
For `O=C1Cc2cc(CCN3CCN(c4nsc5ccccc45)CC3)c(Cl)cc2N1` [ziprasidone], the affinity (serotonin receptors) is given as “high affinity”, the affinity (α-adrenergic receptors) is given as “high affinity” and the affinity (histamine receptors) is given as “moderate affinity”. For the same molecule, the affinity (dopamine receptors) was “high affinity”.
For `CN(C)CCOC1=Cc2ccccc2Sc2ccc(Cl)cc21` [zotepine], the affinity (D1 dopamine receptor) is given as “high affinity” and the affinity (D2 receptors) is given as “high affinity”.
For estrogen, the “response to estrogen therapy” value (hot flashes [9]; perimenopausal person) was “responded well”.

— patent publication US8420624B2, “Methods for treating or preventing symptoms of hormonal variations” (Yung Shin Pharm. Ind. Co., Ltd., priority 2007, dated 2013)
